≈ marks a conversion by molar mass, not a printed value. A value given as a limit tells only on which side of the number the result lay.

As usually defined, the solubility (kinetic) is solubility judged after dilution from a stock solution rather than from solid.

For this series the following is noted: buffer; pH 7.4; 200.0 µM.
Take `Cc1ccc(C(=O)NCC(=O)Nc2ccc3c(c2)CCC3)cc1C`: the kinetic solubility stood at 2.6 µg/mL (≈ 8.06 µM).

Molecule `CC(NC(=O)/C(C#N)=C/c1ccc(C(=O)O)cc1)c1ccccc1` (stereo not drawn) yielded a kinetic solubility greater than 48.1 µg/mL.

`COCCCNC(=O)c1ccc(NC(C)=O)cc1` came in with a solubility (kinetic) greater than 37.5 µg/mL.

`Cc1c(Cl)cccc1NC(=O)CCN1CCOCC1` displayed a kinetic solubility greater than 42.4 µg/mL.

Take `CCc1ccc(OCC(=O)O/N=C(\N)c2ccccn2)cc1`: the solubility (kinetic) is 37.9 µg/mL (≈ 127 µM).

`CNC1(C)[C@H]2CC[C@H](C2)C1(C)C.Cl` (stereo partly drawn) returned a solubility (kinetic) greater than 30.6 µg/mL.

Regarding `CC(C)(C)N=C1C([N+](=O)[O-])=CC=C2C1=NC1(CCCCC1)N2O`, the solubility (kinetic) was 45.3 µg/mL (≈ 142 µM).

For `Nc1ccc2nc(SCC(=O)c3ccccc3)sc2c1`, the solubility (kinetic) stood at 1.8 µg/mL (≈ 5.99 µM).

For `Cc1ccccc1-c1ccc(/C=C2/SC(N3CCOCC3)=NC2=O)o1`, the kinetic solubility amounted to 1.4 µg/mL (≈ 3.95 µM).

Regarding `CC(C)Cc1nc2oc3c(NCC(C)O)ncnc3c2c2c1CCCC2` (stereo not drawn), the solubility (kinetic) was 2.1 µg/mL (≈ 5.92 µM).

Turning to `Cc1nc(NC(=S)NC(=O)c2ccco2)sc1C(=O)N(C)C`, the solubility (kinetic) was greater than 50.8 µg/mL.

`CN(CCc1ccccn1)c1ccc([N+](=O)[O-])cn1`: the solubility (kinetic) is 38.1 µg/mL (≈ 148 µM).

Molecule `O=C(COC(=O)C1CC2CCCC(C1)C2=O)NC1CCCCC1` (stereo not drawn) had a kinetic solubility greater than 48.2 µg/mL.

The molecule `CCS(=O)(=O)N1CCN=C1SCc1cccc(F)c1` returned a kinetic solubility greater than 45.4 µg/mL.

`O=C(Nc1ccccc1Br)c1ccc2nccnc2c1` showed a solubility (kinetic) greater than 49.2 µg/mL.

`Cn1c(=O)c2[nH]cnc2n(C)c1=O` returned a kinetic solubility greater than 27 µg/mL.

`CC(C)c1ccc(OCC(=O)N2CCCN(C)CC2)cc1`: the kinetic solubility is greater than 43.6 µg/mL.

`COc1ccc(C(=O)OCC(=O)NCC2CCCO2)c(F)c1` (stereo not drawn) showed a kinetic solubility greater than 46.7 µg/mL.

`O=C(O)c1c2c(nc3ccccc13)/C(=C/c1cccc([N+](=O)[O-])c1)CCC2` had a solubility (kinetic) greater than 54.1 µg/mL.

`CCOC(=O)c1ccccc1NC(=O)CSc1nc2ccccc2c(=O)n1CCCN1CCOCC1` yielded a kinetic solubility of 18.6 µg/mL (≈ 36.4 µM).

`Cn1cc(SCC(=O)NC2CCCC2)c2ccccc21`: the solubility (kinetic) is greater than 43.3 µg/mL.

Turning to `O=c1c([N+](=O)[O-])cccn1Cc1cccc(Br)c1`, the kinetic solubility is greater than 46.4 µg/mL.

Regarding `Cc1sc2ncnc(N[C@@H](Cc3ccccc3)C(=O)O)c2c1C`, the kinetic solubility was found to be 46.8 µg/mL (≈ 143 µM).

With `CC(=O)N1c2ccc(Cl)cc2C2OCCC2C1c1ccco1` (stereo not drawn), the kinetic solubility was determined as 42.2 µg/mL (≈ 133 µM).

`O=C(CSc1ccccc1)NC1CCCCCCC1` came in with a kinetic solubility of 40.6 µg/mL (≈ 146 µM).

In the case of `COc1cccc2cc(/C(=N/O)c3ccccc3)oc12`, the kinetic solubility is less than 0.6 µg/mL.

Molecule `CC(C)(C)N1C(=O)NC(=O)/C(=C\c2ccc3c(c2)CCN3CCCCl)C1=O` came in with a solubility (kinetic) of 38 µg/mL (≈ 97.5 µM).

Take `CSc1nc(C)c(Cc2c(F)cccc2Cl)c(=O)[nH]1`: the kinetic solubility came to 1 µg/mL (≈ 3.35 µM).

`N/C(COc1cc(Cl)cc(Cl)c1)=N\O` yielded a solubility (kinetic) of 34.3 µg/mL (≈ 146 µM).

In the case of `COc1ccc(CN2CCCCCC2)cc1Br`, the solubility (kinetic) turned out to be 43.3 µg/mL (≈ 145 µM).

In turn, `Cc1cccc(N2N=C(C(=O)OCC(=O)c3ccccc3)CCC2=O)c1` displayed a kinetic solubility greater than 52.6 µg/mL.

`Cc1ccc(C)n1-c1ccccc1N1CCCCC1`: the kinetic solubility was determined as 6.4 µg/mL (≈ 25.2 µM).

As for `COc1ccc2oc(=O)c(C(=O)NCCc3ccc(OC)c(OC)c3)cc2c1`, the solubility (kinetic) is less than 0.8 µg/mL.

For the molecule `CN(C)c1cc[n+](CC(=O)c2cccs2)cc1.[Cl-]`, the kinetic solubility stood at 41.7 µg/mL.

Molecule `CCC(=O)N/C(N)=N/c1nc2ccccc2o1` showed a kinetic solubility of 14.8 µg/mL (≈ 63.7 µM).

For `Cc1cc(NC(=O)c2cccc(Br)c2)no1`, the solubility (kinetic) was 4.2 µg/mL (≈ 14.9 µM).

For the molecule `O=C(CSc1ncccn1)Nc1cc(Cl)ccc1[N+](=O)[O-]`, the solubility (kinetic) worked out at 4.7 µg/mL (≈ 14.5 µM).

For `CCc1ccccc1NC(=O)NC(C)c1ccc2c(c1)OCO2` (stereo not drawn), the kinetic solubility worked out at 0.6 µg/mL (≈ 1.92 µM).

With `Cn1ncc([N+](=O)[O-])c1C(=O)Nc1ccccc1`, the solubility (kinetic) is greater than 36.9 µg/mL.

Molecule `COc1ccc(NC(=O)c2cccc(Cl)c2)c[n+]1[O-]` had a solubility (kinetic) greater than 41.8 µg/mL.

Take `CCN(C(=O)CN1C(=S)NC(C)(C)CC1C)c1ccc(C)c(C)c1` (stereo not drawn): the solubility (kinetic) was greater than 52.1 µg/mL.

`CCOCCCNC(=O)/C(C#N)=C/c1ccc(C)o1`: the solubility (kinetic) turned out to be 35.4 µg/mL (≈ 135 µM).

On to `C=CCn1c(COc2ccccc2OC)nc2ccccc21`, for which the solubility (kinetic) turned out to be 10.2 µg/mL (≈ 34.7 µM).

In the case of `O=C(NCC(=O)N1CCOCC1)c1ccccc1`, the kinetic solubility was greater than 37.2 µg/mL.

Molecule `COc1ccc(C(=O)CSc2cc(C)[nH]c(=O)n2)cc1` yielded a solubility (kinetic) of 23.7 µg/mL (≈ 81.6 µM).

`Cc1ccc(Cl)cc1N1CCN(CC(O)COC(C)C)CC1.Cl` (stereo not drawn): the kinetic solubility was greater than 54.5 µg/mL.

As for `O=c1[nH]c(/C=C\c2ccc(O)c(Cl)c2)nc(O)c1[N+](=O)[O-]`, the solubility (kinetic) worked out at 44 µg/mL (≈ 142 µM).

`CC(C)Cn1c(N)c(C(=O)COC(=O)c2ccc(Br)cc2)c(=O)n(C)c1=O` gave a kinetic solubility of 8.8 µg/mL (≈ 20.1 µM).

`COc1cccc(CNCc2ccccc2OC)c1.O=C(O)C(=O)O` registered a solubility (kinetic) of 28.9 µg/mL.

`CN(CC(=O)Nc1cccc(F)c1)CC(=O)Nc1cccc2ccccc12` yielded a solubility (kinetic) of 15.4 µg/mL (≈ 42.1 µM).

In turn, `Cc1ccc(C)c(NC(=O)N2CCCCCC2)c1` displayed a kinetic solubility greater than 37 µg/mL.

As for `CC1CCCN(C(=O)/C(=C/c2ccco2)NC(=O)c2ccccc2)C1` (stereo not drawn), the kinetic solubility was greater than 50.8 µg/mL.

`Cc1noc(C)c1C(=O)Nc1ccccc1N1CCCC1` had a kinetic solubility of 37.6 µg/mL (≈ 132 µM).

For the origin of these results see PubChem BioAssay AID1996.
